Laboratory results from US11801209B2, “Cooling and flavor boosting compositions” (Firmenich SA, priority 2017, dated 2023).

system: expert panel of three subjects; assay: Sensory evaluation of toothpaste test formulations by an expert panel: intensity of mint flavor and of cooling effect; type: in vivo, human; settings: test toothpaste formulation, summary of Table 8
Method: The potentiation may be determined by any method readily selected by one of ordinary skill in the art. In some aspects, the potentiation is determined using a sensory panel. In the aspects where the potentiation is determined using a sensory panel a subject may contact their oral cavity with a composition, and rate the perceived flavor strength and cooing strength of the composition.
In some aspects, the perceived flavor intensity may be rated from 0 to 5, wherein 0 is no perceived flavor intensity, 1 is a very low perceived flavor intensity, 2 is a low perceived flavor intensity, 3 is a moderate perceived flavor intensity, 4 is a high perceived flavor intensity, and 5 is a very high perceived flavor intensity.
In some aspects, the perceived cooling intensity may be rated from 0 to 5, wherein 0 is no perceived cooling intensity, 1 is a very low perceived cooling intensity, 2 is a low perceived cooling intensity, 3 is a moderate perceived cooling intensity, 4 is a high perceived cooling intensity, and 5 is a very high perceived […].
(§1) An expert panel of three subjects was asked to evaluate the intensity of the mint flavor and the intensity of the cooling effect of the test formulations. The subjects were asked to apply approximately 1 g of a test sample on to a toothbrush, and rinse the toothbrush under running water for 5 secs to moisten the paste and soften the bristles. The subjects then brushed their teeth with the applied test sample, taking care to minimize any contact with the subjects' gums. The subjects then expectorated the test sample, and rinsed their mouth with water. The subjects then ranked the intensity of the mint flavor and the intensity of the cooling effect of the test formulations. The subjects were asked to wait for 15 min between each test sample.
as §1, with “subjects” for “subjects was”

**Q.** `Cc1noc(C)c1Cn1cc(N2C(=O)CN(Cc3cccc(O)c3)C2=O)cn1` [3-(1-((3,5-dimethylisoxazol-4-yl)methyl)-1H-pyrazol-4-yl)-1-(3-hydroxybenzyl)imidazolidine-2,4-dione] was tested. Which “effect on perceived flavor intensity and perceived cooling intensity of the mint flavor” value (“effect” below) did it give?
**A.** able to increase both the perceived flavor intensity and the perceived cooling intensity

**Q.** `CCCCC[C@@H]1C(=O)CC[C@@H]1CC(=O)OC` [(+)-methyl(1R)-cis-3-oxo-2-pentyl-1-cyclopentaneacetate] was tested. Which “effect” value did it give?
**A.** able to increase both the perceived flavor intensity and the perceived cooling intensity

**Q.** With `O=C(O)C1CCCCC1` [cyclohexanecarboxylic acid] as the compound, how does the “effect” value read?
**A.** able to increase both the perceived flavor intensity and the perceived cooling intensity

**Q.** Which “effect” value does the source give for `COc1cc(/C=C/C(=O)O)ccc1O` [ferulic acid] here?
**A.** able to increase both the perceived flavor intensity and the perceived cooling intensity

**Q.** `COC(C)=O` [methyl acetate] was tested. Which “effect” value did it give?
**A.** able to increase both the perceived flavor intensity and the perceived cooling intensity

**Q.** How did the “effect” value turn out when `CCCC(CCC)NC(=O)c1ccc2c(c1)OCO2` [n-(1-propylbutyl)-1,3-benzodioxole-5-carboxamide] was run?
**A.** able to increase both the perceived flavor intensity and the perceived cooling intensity

**Q.** How did the “effect” value turn out when `O=C(CCc1ccc(O)cc1)c1c(O)cc(O)cc1O` [phloretin] was run?
**A.** able to increase both the perceived flavor intensity and the perceived cooling intensity
